Experimental data published in patent US20220249404A1 (Nanjing Ruiying Runze Biopharmaceutical Technology Co., Inc., priority 2019, published 2022).
Where two headings read alike, the source gives them in different places.

Tests used:
zebrafish [1] = experiment: survival rate of zebrafish (PTU35h embryos, drugs alone or in combination); details: for effect on survival rate of zebrafish: used alone; for IC50: Danio rerio, 25 h, read-out: IC50 (survival rate of zebrafish)
[2] = test system: normal human skin melanocytes; details: cited from earlier work
normal mice = details: oral administration, 20 mg/kg; cited from earlier work
[3] = long term oral administration, 20 mg/day; cited from earlier work
C57BL/6 mice = details: oral administration, 2.6 mg/kg, stress-induced; cited from earlier work
tyrosinase = tyrosinase activity of zebrafish (L-DOPA oxidation method); assay type: in vivo
B16F10 cells = details: cited from earlier work
zebrafish [4] = experiment: melanin content / effective rate on melanogenesis in zebrafish (NaOH lysis method); assay type: in vivo; details: for efficacy of Flu (%): calculated using Formula 1; for efficacy of Cal (%): calculated using Formula 3
normal melanocytes = details: 10^−9-10^−5 mol/L; cited from earlier work
zebrafish [5] = details: in vivo
[6] = 0.2 mM PTU35h treatment group compared with normal control group
[7] = 0.005-1.28 μg/ml, compared with PTU35h treatment group

CNCCC(Oc1ccc(C(F)(F)F)cc1)c1ccccc1 (racemic) [fluoxetine]
effect on survival rate of zebrafish (zebrafish [1]; 100 μg/ml): significantly inhibited
melanin of normal human skin melanocytes [2]: can promote
skin coloring (normal mice): can promote skin coloring
side effects [3]: may cause side effects, such as insomnia, lethargy, suicide, neurological disorders
skin discoloration of unhaired back (C57BL/6 mice): can improve skin discoloration
tyrosinase activity of zebrafish (tyrosinase; 1.6-25.6 μg/ml, compared with PTU35h treatment group): increase the tyrosinase activity of zebrafish in a dose-dependent manner
synthesis (melanin) of B16F10 cells (B16F10 cells): can promote
melanin content in zebrafish (zebrafish [4]; 6.4-25.6 μg/ml, compared with PTU35h treatment group): increase the melanin content in zebrafish in a dose-dependent manner
effective rate (%) on melanogenesis in zebrafish (zebrafish [4]; Flu alone 0.1 μg/ml): 4.962%
effective rate (%) on melanogenesis in zebrafish (zebrafish [4]; Flu alone 0.1 μg/ml, listed as Flu): 4.5%
effective rate (%) on melanogenesis in zebrafish (zebrafish [4]; Flu alone 0.4 μg/ml): 6.564%
effective rate (%) on melanogenesis in zebrafish (zebrafish [4]; Flu alone 1.6 μg/ml): 10.260%
effective rate (%) on melanogenesis in zebrafish (zebrafish [4]; Flu alone 1.6 μg/ml, listed as Flu): 10.26%
effective rate (%) on melanogenesis in zebrafish (zebrafish [4]; Flu alone 6.4 μg/ml): 25.804%
effective rate (%) on melanogenesis in zebrafish (zebrafish [4]; Flu alone 25.6 μg/ml): 26.536%
efficacy of Flu (%) (zebrafish [4]; listed as Flu 0.1 μg/ml): 3.151%
efficacy of Flu (%) (zebrafish [4]; listed as Flu 0.4 μg/ml): 3.218%
efficacy of Flu (%) (zebrafish [4]; listed as Flu 1.6 μg/ml): 3.486%
efficacy of Flu (%) (zebrafish [4]; listed as Flu 6.4 μg/ml): 4.547%
efficacy of Flu (%) (zebrafish [4]; listed as Flu 25.6 μg/ml): 8.629%

NC(=S)Nc1ccccc1 [PTU, 1-phenyl-2-thiourea]
tyrosinase activity of zebrafish (tyrosinase; [6]): decreased significantly
melanin content in zebrafish (zebrafish [4]; [6]): decreased significantly

C=C1CC[C@H](O)C/C1=C/C=C1\CCC[C@]2(C)[C@@H]([C@H](C)CCCC(C)C)CC[C@@H]12 [VD3, vitamin D3]
effect on survival rate of zebrafish (zebrafish [1]; 5 μg/ml): significantly inhibited
tyrosinase activity of zebrafish (tyrosinase; [7]): no significant effect
efficacy of VD3 (%) (zebrafish [4]; VD3 0.02 μg/ml, calculated using Formula 2): 3.72%
efficacy of VD3 (%) (zebrafish [4]; VD3 0.08 μg/ml, calculated using Formula 2): 5.41%
efficacy of VD3 (%) (zebrafish [4]; VD3 0.32 μg/ml, calculated using Formula 2): 11.07%
efficacy of VD3 (%) (zebrafish [4]; VD3 1.28 μg/ml, calculated using Formula 2): 15.74%
effective rate (%) on melanogenesis in zebrafish (zebrafish [4]; used alone 0.02 μg/ml): 5.564%
effective rate (%) on melanogenesis in zebrafish (zebrafish [4]; used alone 0.08 μg/ml): 7.337%
effective rate (%) on melanogenesis in zebrafish (zebrafish [4]; used alone 0.32 μg/ml): 10.315%
effective rate (%) on melanogenesis in zebrafish (zebrafish [4]; used alone 1.28 μg/ml): 15.775%
effective rate (%) on melanogenesis in zebrafish (zebrafish [4]; zebrafish, in vivo): 3.346%
efficacy of VD3 (%) (zebrafish [4]; zebrafish, in vivo): 3.28%
melanin content in zebrafish (zebrafish [4]; zebrafish, in vivo): no significant difference

C=C1/C(=C\C=C2/CCC[C@]3(C)[C@@H]([C@H](C)/C=C/[C@@H](O)C4CC4)CC[C@@H]23)C[C@@H](O)C[C@@H]1O [calcipotriol]
effect on survival rate of zebrafish (zebrafish [1]; 5 μg/ml): significantly inhibited
IC50 (zebrafish [1]): 3.5 µg/mL
melanogenesis of normal melanocytes (normal melanocytes): can promote melanogenesis
tyrosinase activity of zebrafish (tyrosinase; [7]): no significant effect
efficacy of Cal (%) (zebrafish [4]; Cal 0.005 μg/ml): 3.42%
efficacy of Cal (%) (zebrafish [4]; Cal 0.02 μg/ml): 3.85%
efficacy of Cal (%) (zebrafish [4]; Cal 0.08 μg/ml): 5.50%
efficacy of Cal (%) (zebrafish [4]; Cal 0.32 μg/ml): 10.77%
efficacy of Cal (%) (zebrafish [4]; Cal 1.28 μg/ml): 11.17%
effective rate (%) on melanogenesis in zebrafish (zebrafish [4]; used alone 0.005 μg/ml): 4.296%
effective rate (%) on melanogenesis in zebrafish (zebrafish [4]; used alone 0.02 μg/ml): 5.509%
effective rate (%) on melanogenesis in zebrafish (zebrafish [4]; used alone 0.08 μg/ml): 6.773%
effective rate (%) on melanogenesis in zebrafish (zebrafish [4]; used alone 0.32 μg/ml): 10.214%
effective rate (%) on melanogenesis in zebrafish (zebrafish [4]; used alone 1.28 μg/ml): 11.197%

C=C1/C(=C\C=C2/CCC[C@]3(C)[C@@H]([C@H](C)CC[C@@H](O)C(C)C)CC[C@@H]23)C[C@@H](O)C[C@@H]1O [tacalcitol]
IC50 (zebrafish [1]): 4 µg/mL
effect on survival rate of zebrafish (zebrafish [5]): significantly inhibited
